Experimental data reported in patent publication US12496290B2, “Method and compounds for treating or preventing autoimmune disorders or immune responses modulated by the expression of IDO1” (The Trustees of Princeton University, priority 2019, dated 2025).

What was measured:
IDO1 = IDO1 (Homo sapiens, UniProt P14902); assay: IDO1 activity assay, N-formylkynurenine absorbance at 321 nm; format: biochemical
Protocol: FIG. 6 reflects a system involving IDO1 (50 nM), 0.1 mM L-tryptophan, and 5 mM glutathione in 100 mM sodium phosphate, pH 7.0 with <1 μM 6-chloro-5-fluoro-1H-indole-3-thiol.
The activity of the compounds was determined as follows. UV—vis spectra were recorded using a Hewlett-Packer 8453 diode array spectrophotometer. Activity assays were done at room temperature using 100 mM sodium phosphate, pH 7.0, with 500 nM IDO1 (ε404 nm=172 mM^−1 cm^−1) and 50 μM L-tryptophan. These were initiated by addition of IDO1, and activity was monitored at 321 nm where product N-formylkynurenine absorbs (ε321 nm=3750 M^−1 cm^−1).
The substituted indole compound was prepared daily in a 100 mM stock solution in dimethyl sulfoxide (DMSO), and this was serially diluted to maintain a consistent final concentration of 1% (v/v) DMSO in each assay. To maintain activity, 5 mM reduced glutathione was added to some of these from a 0.5 M stock solution. The substituted indole compound was generally tested from 100 nM to 10 μM. The ability of each compound to serve as a reducing substrate for IDO1 was fit using a Michaelis—Menten equation. […] Above 5 μM 3MI, there was a steep inhibitory effect.

ferric IDO1 = ferric IDO1 (Homo sapiens, UniProt P14902); assay: Stopped-flow UV-vis spectrometry of binding to ferric IDO1
Protocol: FIG. 3 is a graph showing the second-order rate constant of 3MI binding to ferric IDO1 determined by stopped-flow spectrometry.
FIG. 4 is a graph showing stopped-flow UV—vis spectrometry of 3MI (30 μM) binding to IDO1 (1.4 μM) over 0.2 s.
3-Mercaptoindole (3MI) was seen to bind to IDO1 with a fast on-rate of 1.7×10^6 M^−1 s^−1 under pseudo-first-order conditions (See FIG. 3), producing a UV—vis spectrum (see FIG. 4) that has a Soret at 424 nm, a lower peak at 321 nm, and broad q-bands at 537 nm and a shoulder at about 575 nm. […] Note that although 3MI is referred to here, similar results can be seen with other substituted indole compounds disclosed herein.
Using 3MI, there was an initial burst of IDO1 activity, which leveled off after 500 s, well before substrate tryptophan was consumed (FIG. 2, 202). Reduced glutathione was added to the activity assay solutions at nearly cellular concentrations (5 mM) to reduce any oxidized 3MI-disulfide products that may have formed, and this allowed for sustained 3MI-induced IDO1 activity (FIG. 2, 201).

ferric-superoxo IDO1 = ferric-superoxo IDO1 (Homo sapiens, UniProt P14902); assay: Double-mixing stopped-flow spectrometry with ferric-superoxo IDO1; format: biochemical; settings: lowest 3MI concentration useful for pseudo-first-order conditions; nearly within instrument mixing time
Protocol: The nature of substituted indole compound-inhibition at high concentrations (>5 μM) was examined further with ferric-superoxo IDO1, the active tryptophan-oxidizing species. Ferric-superoxo IDO1 was generated using double-mixing stopped-flow spectrometry by mixing IDO1 prereduced with 2 mM sodium dithionite into aerobic buffer for 0.5 s. This ferric superoxo species was then mixed in the second push with 3MI that had been maintained in the reduced state using 5 mM glutathione. 3MI readily reacted with ferric-superoxo IDO1 to form ferric IDO1 without any observable intermediates. This was shown by a fast shift from the ferric-superoxo complex (λmax 415 nm) to the ferric (λmax 404 nm) that was completed nearly within the mixing time of the instrument (<10 ms) even at the lowest concentration of 3MI useful for pseudo-first-order reaction conditions (where 3MI must be at a large excess over IDO1). Following this fast conversion to ferric IDO1, there was a slower shift to the ferric 3MI-bound complex as indicated by the Soret shifting to 424 nm (as in FIG. 4). To account for both reactions, these traces were fit using a double exponential expression.

myoglobin = assay: Heme protein selectivity, stopped-flow UV-vis: myoglobin; format: biochemical; settings: pseudo-first-order conditions
Protocol: (§1) Since hydrogen sulfide and polysulfides are known to react with other heme proteins, the selectivity of 3MI for IDO1 was examined by mixing the substituted indole compounds (such as 3MI) with several other heme proteins and observing their reactions using stopped-flow UV—vis spectrometry.
(§2) The substituted indole compounds had no effect on catalase even at 250 μM, whereas the substituted indole compounds did appear to reduce myoglobin and hemoglobin, producing their oxygen-bound forms. The substituted indole compound were also able to reduce ferric cytochrome c to its distinctive ferrous form. The second-order rate constants of these reactions were determined under pseudo-first-order conditions giving 6.6×10^3, 1.6×10^4, and 2.7×10^5 M^−1 s^−1 for myoglobin, hemoglobin, and cytochrome c, respectively. […] Unlike myoglobin and hemoglobin, the oxy-form of IDO1 was not observed due to the relatively slow reduction of IDO1 by 3MI.

hemoglobin = assay: Heme protein selectivity, stopped-flow UV-vis: hemoglobin; format: biochemical; settings: pseudo-first-order conditions
Protocol: as §1, §2

ferric cytochrome c = assay: Heme protein selectivity, stopped-flow UV-vis: cytochrome c; format: biochemical; settings: pseudo-first-order conditions
Protocol: as §1, §2

Chain of IDO1 (P14902 whole entry): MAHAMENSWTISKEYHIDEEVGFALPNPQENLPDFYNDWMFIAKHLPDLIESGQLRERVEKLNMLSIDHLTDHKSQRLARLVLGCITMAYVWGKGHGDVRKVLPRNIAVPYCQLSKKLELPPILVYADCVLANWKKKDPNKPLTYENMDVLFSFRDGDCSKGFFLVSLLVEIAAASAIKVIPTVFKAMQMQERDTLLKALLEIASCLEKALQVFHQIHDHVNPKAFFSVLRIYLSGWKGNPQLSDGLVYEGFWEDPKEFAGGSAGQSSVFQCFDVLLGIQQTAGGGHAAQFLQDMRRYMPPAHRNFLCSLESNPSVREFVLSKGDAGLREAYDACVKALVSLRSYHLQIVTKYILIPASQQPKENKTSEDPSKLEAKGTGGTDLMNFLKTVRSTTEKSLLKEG
Chain of ferric IDO1 (P14902 whole entry): as above
Chain of ferric-superoxo IDO1 (P14902 whole entry): as above

Compound | concentration above which there was a steep inhibitory effect on IDO1 activity (IDO1) | 3MI-induced IDO1 activity with glutathione (IDO1; 5 mM reduced glutathione added (FIG. 2, 201)) | time after which the initial burst of IDO1 activity leveled off (IDO1; 3MI without glutathione (FIG. 2, 202), before tryptophan was consumed) [s] | activation of IDO1 (IDO1; FIG. 2) | Ki (IDO1; single exponential fit of the inhibitory region at higher concentrations, read-out: Ki app (apparent Ki at half-activity)) [µM] | selectivity: IDO1 binding rate constant exceeding that of the cytochrome c reduction (ferric IDO1; IDO1 versus cytochrome c) | kon (ferric IDO1; pseudo-first-order conditions, stopped-flow, ferric IDO1, read-out: on-rate / second-order rate constant of binding to IDO1) [M⁻¹ s⁻¹] | time to complete the shift from ferric-superoxo complex to ferric IDO1 (ferric-superoxo IDO1) [ms] | second-order rate constant of reaction (reduction) with myoglobin (myoglobin) [M⁻¹ s⁻¹] | second-order rate constant of reaction (reduction) with hemoglobin (hemoglobin) [M⁻¹ s⁻¹] | second-order rate constant of reaction (reduction) with cytochrome c (ferric cytochrome c) [M⁻¹ s⁻¹] | IDO1 activity, product N-formylkynurenine absorbance at 321 nm over time (FIG. 6) (IDO1; IDO1 50 nM, 0.1 mM L-tryptophan, 5 mM glutathione, 100 mM sodium phosphate pH 7.0, <1 μM compound, background subtracted)
Sc1c[nH]c2ccccc12 [3MI, 3-Mercaptoindole] | Above 5 μM | sustained | 500 | inducing turnover even at nM concentrations | 8 ± 3 | an order of magnitude | 1.7e+06 | < 10 | 6600 | 16000 | 270000 | 
Fc1cc2c(S)c[nH]c2cc1Cl [6-chloro-5-fluoro-1H-indole-3-thiol] |  |  |  |  |  |  |  |  |  |  |  | increase in absorbance
